Experimental findings from article PMC9131456, “Structure-Based Discovery of Lipoteichoic Acid Synthase Inhibitors” (Journal of Chemical Information and Modeling, 2022) are described below.

In test [1] the test system is S. aureus (strain Newman). Put plainly: Thin-section TEM ultrastructure analysis. Type of test: cell-based. The following applies: 5 μM compound 4 or 100 μM compound 9. On the procedure:
The TEM imaging protocol was adapted from Garufi et al.[68]S. aureus (strain Newman) was grown in 20 mL of MH2 broth with either DMSO, 5 μM of compound 4 or 100 μM of compound 9 at 37 °C. When the control culture had reached an OD600nm ∼ 1, the cells were pelleted at 1520g and submitted to the Cambridge Advanced Imaging Centre for preimaging processing. Briefly, the cells were washed with water and fixed with 2% glutaraldehyde-4% paraformaldehyde in 0.1 M sodium cacodylate buffer (pH 7.2) for 2 h. After fixation, the cells were stained, dehydrated, and embedded in Spurr resin. The resin was cut into thin sections and viewed using a Tecnai G2 Transmission Electron Microscope at 200 kV with a bottom-mounted AMT CCD digital camera.

Test [2] relates to S aureus (strain Newman) biofilm. Description: Biofilm assay (crystal violet). Type of test: cell-based. The following applies: 20 h, compound tested at 50, 25 and 12.5 μM. On the procedure: Biofilm assays were carried out on 96-well flat-bottom plates using the protocol described by […] et al.[48] Briefly, S aureus (strain Newman) was grown statically in 96-well plates at 37 °C in Tryptic soy broth supplemented with 0.5% glucose. Each well was additionally supplemented with either DMSO or compound 9 to concentrations of 50, 25, and 12.5 μM. After 20 h, the bacterial cultures from the plates were removed, and each well was rinsed with 150 μL of sterilized distilled water thrice. The plates were then incubated for 1 h at 60 °C. After that, the biofilm in each well was stained with 0.05% (w/v) of crystal violet solution using the protocol described by O'Toole.[67] Finally, the stained biofilms were solubilized with 30% acetic acid and quantified at OD600nm using the BMG Labtech CLARIOstar microplate reader.

The subject of a further test is MRSA strain COL. Put plainly: Potentiation (checkerboard synergy) assay. Type of test: cell-based, S. aureus. The method, then:
All the compounds tested in this study were dissolved in dimethyl sulfoxide (DMSO) at an initial stock concentration of 20 mM and stored at −20 °C. These compounds were tested for their antimicrobial activity using the microdilution broth method[66] following the protocol described by Richter et al.[30] Briefly, overnight cultures of S. aureus (strain Newman) grown at 37 °C in cation-adjusted Mueller Hinton II (MH2) broth were adjusted to an OD600nm of 0.6 before back-diluted with a factor of 1:2000 with the same broth. After that, 200 μL of the diluted bacterial culture were dispensed into each well of 96-well plates supplemented with the compounds to the desired concentrations. The plates were then sealed with a moisture membrane barrier and incubated statically for 20 h at 37 °C. After that, the OD600nm values of the cultures in each well were measured using a CLARIOstar microplate reader (BMG Labtech). The procedures for the potentiation assays were by large the same as described above with some variations. In such assays, MRSA strain COL was grown in the 96-well plates supplemented with different concentrations of compound 9 with methicillin, carbenicillin, or polymyxin B in a checkerboard format. Their synergistic effects were quantified by OD600nm measurements using a CLARIOstar microplate reader (BMG Labtech).

Another test concerns the target T1, wild-type eLtaS (Staphylococcus aureus, UniProt Q2G093).
T1 construct: LtaS is a transmembrane protein with a large extracellular catalytic domain (denoted as eLtaS); His-tag; made in house; host or cells: E. coli (Rosetta; plasmid pProEX-eLtaS from strain ANG571)
Put plainly: Isothermal titration calorimetry, wild-type eLtaS. Type of test: binding, S. aureus. To be noted: ITC; for Kd: 25 °C, wild-type eLtaS titrated into 10 μM inhibitor. The method, then: Each of the eLtaS proteins were purified from 6 L of E. coli cultures that were grown with aeration in LB medium supplemented with 200 μg/mL of carbenicillin and 34 μg/mL of chloramphenicol at 37 °C. When the cultures reached an OD600nm of about 0.6, protein expression was induced with 1 mM IPTG final concentration at 21 °C overnight. Later, the bacteria were harvested by centrifugation at 11,899g, and the bacterial pellets were resuspended with lysis buffer (50 mM Trizma-HCl, pH 7.5, 300 mM NaCl, 5% glycerol, 10 mM imidazole, 5 mM β-mercaptoethanol). The bacterial pellets were lyzed by three passages through a high-pressure emulsifier, and the lysates were centrifuged at 47,596g for 30 min at 4 °C. The resulting supernatants containing the His-tagged eLtaS proteins were filtered with a 0.22 μm filter before being loaded onto a 5 mL Ni-NTA column using an ÄKTApure protein purification system. The bound proteins were subsequently washed with lysis buffer, eluted using the elution buffer (50 mM Trizma-HCl, pH 7.5, 300 mM NaCl, 5% glycerol, and 300 mM imidazole), and dialyzed twice using the dialysis buffer [25 mM Trizma-HCl, pH 7.5, 100 mM NaCl, 10% glycerol, 1 mM ethylenediaminetetraacetic acid (EDTA)]. After dialysis, protein purity was confirmed to be >90% using SDS-PAGE. Proteins were then concentrated, snap-frozen in liquid N2, and stored at −80 °C prior to usage. All four eLtaS proteins were subjected to circular dichroism analysis, and their exact masses were determined using MS.
The thawed eLtaS proteins were dialyzed using D-Tube Dialyzer Mini (EMD Millipore) in 20 mM Trizma-HCl pH 7.5, 100 mM NaCl with Chelex 100 (Sigma-Aldrich) for 1.5 h twice on the same day prior to the ITC experiments. After dialysis, the eLtaS proteins were centrifuged at 20,000g at 10 °C for 10 min. The supernatants were transferred to new microcentrifuge tubes and diluted to 100 μM using the same buffer as above with an addition of 0.1% (v/v) DMSO. Meanwhile, the eLtaS inhibitors were diluted to 10 μM using the same buffer and maintaining 0.1% (v/v) DMSO. The eLtaS proteins were titrated into the main cell containing the inhibitors using a VP-ITC at 25 °C. The injection parameters were set as follows: a reference power of 15 μcal/s, an initial injection of 3 μL over a duration of 3.6 s, and then subsequent injections of 10 μL over a duration of 12 s. All injections were spaced with 240 s with a filter period of 2 s. Data were first analyzed in NITPIC[69] for baseline calculations and then fit for thermodynamic parameters using the OneSite model in Origin 7.0 software.
(In ITC the heat of successive injections is recorded.)

Setting [3] is: MRSA strain COL, compound 9 at subinhibitory 12.5 μM, checkerboard.

T1 sequence (Q2G093 218-646): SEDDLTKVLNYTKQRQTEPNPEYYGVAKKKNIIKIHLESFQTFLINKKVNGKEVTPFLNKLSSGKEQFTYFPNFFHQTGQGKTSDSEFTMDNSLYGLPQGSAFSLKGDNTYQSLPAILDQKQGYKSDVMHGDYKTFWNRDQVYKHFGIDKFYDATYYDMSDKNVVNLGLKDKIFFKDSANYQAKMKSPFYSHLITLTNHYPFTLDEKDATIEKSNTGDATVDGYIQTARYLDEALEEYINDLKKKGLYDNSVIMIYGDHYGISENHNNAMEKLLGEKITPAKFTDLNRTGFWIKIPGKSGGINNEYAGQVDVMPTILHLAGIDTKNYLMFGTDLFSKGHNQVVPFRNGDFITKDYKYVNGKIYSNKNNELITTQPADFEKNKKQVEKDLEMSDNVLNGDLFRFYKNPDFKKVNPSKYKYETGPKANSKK

Regarding `S=C(Nc1ccc(Cl)cc1)Nc1ccc(Sc2nc3ccccc3[nH]2)cc1` [Compound 9], the “ultrastructure of treated S. aureus (TEM)” value in test [1] was “swollen S. aureus cells with a thickened peptidoglycan layer and cell division defects”. Moreover, in test [2], the “reduction in biofilm attachment” value worked out at 50%. Besides, in the test on MRSA strain COL (setting [3]), the “reduction of the minimum inhibitory concentration of carbenicillin” value is recorded as 32 fold and the “reduction of the minimum inhibitory concentration of methicillin” value is given as 16 fold. Moreover, the “increase in sensitivity toward polymyxin B” value in the test on MRSA strain COL (MRSA strain treated with compound 9, checkerboard) is recorded as 4 fold. The Kd (as a rule, a measure of binding affinity in units of concentration) on wild-type eLtaS came out at 283 nM.

With `O=C(COC(=O)c1cn(-c2ccccc2)nc1-c1cccs1)Nc1nnc(-c2ccccc2)o1` [Compound 4], binding on wild-type eLtaS was characterised by a dissociation constant (Kd) of 365 ± 6.8 nM. Moreover, at wild-type eLtaS (wild-type eLtaS, compared with 1771), the binding enthalpy entry is “more exothermic than that of 1771”.
